# Experimental data published in patent US10857180B2, “Pharmaceutical composition for improving health, cure abnormalities and degenerative disease, achieve anti-aging effect of therapy and therapeutic effect on mammals and method thereof” (priority 2014, dated 2020).
# Assays:
# [1] = system: human non-small cell lung cancer (line A-549) cells; experiment: Immunocytochemistry (H-Score) of A-549 cells; type: cell-based
# Experimental: When making the immunocytochemistry (ICC) assay, cells on microscope glasses (cytospin preparations) were fixed in the solution (methanol+acetone 1:1) for 2 hours at t 20° C. and incubated with 1% solution of bovine serum albumin (BSA) for 20 minutes. Then the monoclonal antibodies-CD44 (Diagnostic BioSystems), E-cadherin (ThermoScientific), N-cadherin (NeoMarker, BioLegend), SLUG (GeneTex)—were applied for the time period specified by the manufacturer (30 to 60 minutes), after which the Poly Vue imaging system conjugated with peroxidase was used and the enzyme activity was detected using diaminobenzidine (ThermoScientific) as a substrate. After the immunocytochemical reaction the preparations were washed with water and counterstained with hematoxylin-eosin (for 15 to 30 seconds).
# The results were analyzed by counting cells with expression (brown colored cells) using a light microscope, and were assessed using the classical H-Score method: S=1×A+2×B+3×C, where S is the H-Score index giving a range of 0 (protein is not detected) to 300 (high-level expression in 100% of the cells); A is the percentage of weakly staining cells, B is the percentage of moderately staining cells and C is the percentage of strongly staining cells.
# [2] = system: A-549 cell line; experiment: Cytogenetic analysis (micronucleus test) of A-549 cells; type: cell-based, human; conditions: for increase of cells with protrusions: A-549
# Experimental: Advanced Micronucleus Test was used to assess the cytogenetic characteristics of cells after their exposure to the action of the test group of components.
# Cytogenetic analysis was carried out after 48 hours of exposure of the cells to the action of the components. For cytogenetic analysis, the cells were incubated in hypotonic solution KCl (0.54%) (Reahim, Ukraine) for 40 minutes at +37° C. Then they were fixed with a mixture of methyl alcohol (Reahim, Ukraine) and acetic acid (Himlaborreaktiv, Ukraine) (3:1) with replacing the fixative three times. All fixed cell suspensions were applied on cold wet glasses, dried and stained with Giemsa stain (Sigma, Germany). The cytogenetic preparations were analyzed using a binocular microscope Sari Zeiss, AxioStarPlus (Germany) with magnification of x 1000. The following quantitative characteristics and stages of cell division were analyzed on the preparations: mitoses, cells with premature chromosome condensation (PCC), cells with micronuclei (CMN), apoptotic cells and cells with nuclear protrusions (protrusions) which were calculated for 1000 cells and expressed in per mille (%).
# [3] = system: human melanoma tumor cells (MM-4 cell line); experiment: Scratch assay, MM-4 cells; type: cell-based; conditions: ^64Zn 15 mcg/ml; 48 hours in control
# Experimental: The cells of A-549, A-431, NRK, HaCaT, MM-4, normal fibroblasts (derived from the Bank of Cell Lines from human and animal tissues, R. E. Kavetsky Institute of Experimental Pathology, Oncology and Radiobiology, National Academy of Sciences of Ukraine) were cultured in complete culture medium RPMI 1640/DMEM (PAA, Austria) (depending on the cell type) supplemented with 10% fetal calf serum (PAA, Austria) and incubated in 5% CO2 humidified atmosphere at 37° C. The culture medium was replaced in 2 to 3 days and the cells were passaged in 4 to 5 days.
# Analysis of the influence of the components under study on the cell migration rate was performed using the scratch assay method. […]
# The plate was incubated in a CO2 incubator for additional 48 hours. After the cells formed a dense monolayer it was damaged (by making a “scratch”) and the growth medium was replaced to remove cell debris and smooth the edges of the “scratch.” The rate of cell migration was analyzed using an inverted microscope and by photographing cells in the area of injury. The migration activity of cells was fixed at several time points (depending on the cell line analyzed). The microphotomicrographs were analyzed and the cell incubation time needed to restore the monolayer was determined for all experimental groups. […]
Compound,number of slug-positive cells with nuclear expression [1],number of cells with E-cadherin ([1]; dose of IC50),increase of cells with protrusions [2] [fold],slug-positive cells with cytoplasmic expression [1],"level of nuclear abnormalities vs control ([2]; ^64Zn 20 mcg/ml, 48 hours)","level of nuclear abnormalities vs dose of 10 mcg/ml ([2]; ^64Zn 20 mcg/ml, 48 hours)",time of the gap closing [3] [h]
[39K+].[Cl-] [^39K],significantly decreased,inhibition,15,,,,
O=S(=O)([O-])[O-].[64Zn+2] [^64Zn],,,~10,decrease,fifty times as high as the baseline,triple increase,72
